In brackets after ≈: the same amount, converted by molar mass. Activity calls are given as the source filed them. No cut-off for these calls is given here.
How the values were obtained:
[1] = system: Candida albicans; assay: Antifungal activity against fluconazole-resistant Candida albicans 901 assessed as inhibition of fungal growth measured for 24 hrs by CLSI based microdilution analysis; type: functional
[2] = system: Aspergillus fumigatus; assay: Antifungal activity against Aspergillus fumigatus CGMCC3 7795 assessed as reduction in fungal growth incubated for 48 hrs by CLSI based microdilution analysis; type: functional
[3] = system: Candida albicans; assay: Antifungal activity against fluconazole-resistant Candida albicans 15 assessed as inhibition of fungal growth measured for 24 hrs by CLSI based microdilution analysis; type: functional
[4] = system: Meyerozyma guilliermondii; assay: Antifungal activity against Meyerozyma guilliermondii ATCC 6260 assessed as reduction in fungal growth incubated for 24 hrs by CLSI based microdilution analysis; type: functional
[5] = Hemolytic activity in mouse RBC assessed as hemolysis at 100 microg/ml incubated for 60 mins relative to control; type: toxicity, cell-based, Erythrocyte; conditions: red blood cells (erythrocytes), at 100 µg/mL, read-out: Activity
[6] = system: CYP3A4; assay: Selectivity index, ratio of MIC80 for antifungal activity against Candida albicans to IC50 for inhibition of CYP3A4 in human liver microsomes; type: toxicity; conditions: read-out: Selectivity Index
[7] = system: Candida parapsilosis; assay: Antifungal activity against Candida parapsilosis ATCC 22019 assessed as reduction in fungal growth incubated for 24 hrs by CLSI based microdilution analysis; type: functional; conditions: Lodderomyces parapsilosis
[8] = molecular target: T1, Lanosterol 14-alpha demethylase (Candida albicans (strain SC5314 / ATCC MYA-2876) (Yeast), UniProt P10613); assay: Inhibition of CYP51 in Candida albicans […] assessed as decrease in unknown sterol biosynthesis level at 1 times MIC80 incubated for 16 hrs by GC-MS analysis relative to control
T1 sequence (P10613 whole entry): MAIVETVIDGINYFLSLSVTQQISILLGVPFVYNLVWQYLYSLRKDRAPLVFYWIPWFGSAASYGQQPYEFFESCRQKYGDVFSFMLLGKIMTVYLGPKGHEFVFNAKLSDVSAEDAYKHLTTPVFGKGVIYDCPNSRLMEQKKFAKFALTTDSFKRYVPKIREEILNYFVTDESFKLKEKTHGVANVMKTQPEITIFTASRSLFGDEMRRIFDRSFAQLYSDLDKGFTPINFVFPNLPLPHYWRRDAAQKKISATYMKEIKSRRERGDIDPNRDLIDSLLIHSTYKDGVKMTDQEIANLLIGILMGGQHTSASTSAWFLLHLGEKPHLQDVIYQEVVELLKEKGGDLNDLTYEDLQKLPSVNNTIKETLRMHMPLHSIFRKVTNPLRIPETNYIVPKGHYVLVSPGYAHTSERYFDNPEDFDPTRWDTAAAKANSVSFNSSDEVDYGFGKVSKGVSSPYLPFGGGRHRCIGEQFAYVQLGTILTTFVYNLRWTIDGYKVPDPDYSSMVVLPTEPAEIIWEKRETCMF

[9] = system: Cryptococcus neoformans; assay: Antifungal activity against Cryptococcus neoformans CGMCC3 1563 assessed as reduction in fungal growth incubated for 72 hrs by CLSI based microdilution analysis; type: functional
[10] = system: Candida albicans; assay: Antifungal activity against fluconazole-resistant Candida albicans 112869 assessed as inhibition of fungal growth measured for 24 hrs by CLSI based microdilution analysis; type: functional
[11] = system: Candida albicans; assay: Antifungal activity against Candida albicans SC5314 assessed as reduction in fungal growth incubated for 24 hrs by CLSI based microdilution analysis; type: functional
[12] = system: Candida albicans; assay: Antifungal activity against fluconazole-resistant Candida albicans 24D assessed as inhibition of fungal growth measured for 24 hrs by CLSI based microdilution analysis; type: functional
[13] = system: Candida tropicalis; assay: Antifungal activity against Candida tropicalis ATCC 750 assessed as reduction in fungal growth incubated for 24 hrs by CLSI based microdilution analysis; type: functional
[14] = system: Candida albicans; assay: Antifungal activity against fluconazole-resistant Candida albicans 102 assessed as inhibition of fungal growth measured for 24 hrs by CLSI based microdilution analysis; type: functional
[15] = molecular target: T1, Lanosterol 14-alpha demethylase; assay: Inhibition of CYP51 in Candida albicans […] assessed as decrease in ergosterol biosynthesis level at 1 times MIC80 incubated for 16 hrs by GC-MS analysis (Rvb=67.2%)
[16] = system: Candida albicans; assay: Induction of resistance development in Candida albicans SC5314 assessed as fold increase in MIC treated over 20 serial passages by microdilution assay; type: functional
[17] = system: Candida albicans; assay: Induction of resistance development in Candida albicans SC5314 assessed as increase in MIC treated over 8 serial passages by microdilution assay; type: functional
[18] = system: Candida albicans; assay: Antifungal activity against fluconazole-resistant Candida albicans 13 assessed as inhibition of fungal growth measured for 24 hrs by CLSI based microdilution analysis; type: functional
[19] = system: Nakaseomyces glabratus; assay: Antifungal activity against Candida glabrata ATCC 15126 assessed as reduction in fungal growth incubated for 24 hrs by CLSI based microdilution analysis; type: functional
[20] = system: Candida albicans; assay: Potency index, ratio of fluconazole MIC80 to test compound MIC for antifungal activity against Candida albicans SC5314 assessed as reduction in fungal growth incubated for 24 hrs by CLSI based microdilution analysis; type: functional
[21] = system: Candida albicans; assay: Potency index, ratio of itraconazole MIC80 to test compound MIC for antifungal activity against Candida albicans SC5314 assessed as reduction in fungal growth incubated for 24 hrs by CLSI based microdilution analysis; type: functional
[22] = system: Candida albicans; assay: Potency index, ratio of voriconazole MIC80 to test compound MIC for antifungal activity against Candida albicans SC5314 assessed as reduction in fungal growth incubated for 24 hrs by CLSI based microdilution analysis; type: functional
[23] = system: Candida albicans; assay: In-vivo antifungal activity against Candida albicans […] infected in skin infected ICR mouse model assessed as reduction in fungal burden in skin at 1 mg/kg, ip pretreated for 24 hrs followed by infection and measured for 5 days by Periodic acid-Schiff staining based analysis; type: functional, organism-based; conditions: time 144.0 hrs
[24] = system: Candida albicans; assay: In-vivo antifungal activity against Candida albicans […] infected in skin infected ICR mouse model assessed as wound healing at 1 mg/kg, ip pretreated for 24 hrs followed by infection and measured for 5 days; type: functional, organism-based; conditions: time 144.0 hrs

## OC(Cn1cncn1)(Cn1cncn1)c1ccc(F)cc1F [FLUCONAZOLE]
[1]
  MIC80: > 100 µg/mL
[2]
  MIC80: > 100 µg/mL
[3]
  MIC80: 32 µg/mL (≈ 104 µM)
[4]
  MIC80: 1.25 µg/mL (≈ 4.08 µM)
[5]
  hemolysis at 1 h, 100 microg/ml: 1.7%
[6]
  selectivity ratio: 25
[7]
  MIC80: 1.25 µg/mL (≈ 4.08 µM)
[8]
  inhibition (INH): 24.78%
[9]
  MIC80: 1.25 µg/mL (≈ 4.08 µM)
[10]
  MIC80: > 100 µg/mL
[11]
  MIC80: 0.5 µg/mL (≈ 1.63 µM)
[12]
  MIC80: > 100 µg/mL
[13]
  MIC80: 2.5 µg/mL (≈ 8.16 µM)
[14]
  MIC80: > 100 µg/mL
[15]
  inhibition (INH): 17.61%
[16]
  fold change (FC): 100
[17]
  fold change (FC): 10
[18]
  MIC80: > 100 µg/mL
[19]
  MIC80: 2.5 µg/mL (≈ 8.16 µM)

## OC(CN1CCN(CCn2ccc3cc(Br)ccc32)CC1)(Cn1cncn1)c1ccc(F)cc1F (stereo unspecified)
[1]
  MIC80: 1.25 µg/mL (≈ 2.29 µM)
[2]
  MIC80: 0.625 µg/mL (≈ 1.15 µM)
[3]
  MIC80: 0.312 µg/mL (≈ 0.572 µM)
[4]
  MIC80: 0.015 µg/mL (≈ 0.0275 µM)
[20]
  Ratio: 32
[5]
  hemolysis at 1 h, 100 microg/ml: 1.2%
[7]
  MIC80: 0.015 µg/mL (≈ 0.0275 µM)
[9]
  MIC80: 0.015 µg/mL (≈ 0.0275 µM)
[21]
  Ratio: 4
[10]
  MIC80: 0.062 µg/mL (≈ 0.114 µM)
[11]
  MIC80: 0.015 µg/mL (≈ 0.0275 µM)
[12]
  MIC80: 0.031 µg/mL (≈ 0.0568 µM)
[13]
  MIC80: 0.156 µg/mL (≈ 0.286 µM)
[14]
  MIC80: 0.015 µg/mL (≈ 0.0275 µM)
[18]
  MIC80: 0.015 µg/mL (≈ 0.0275 µM)
[22]
  Ratio: 4
[19]
  MIC80: 0.156 µg/mL (≈ 0.286 µM)

## N#C/C(=C1/SC[C@@H](c2ccc(Cl)cc2Cl)S1)n1ccnc1
[23]
  Activity: Active
[24]
  Activity: inactive

## O=[N+]([O-])c1ccc2c(ccn2CCCN2CCN(CC(O)(Cn3cncn3)c3ccc(F)cc3F)CC2)c1 (stereo unspecified)
[1]
  MIC80: 1.25 µg/mL (≈ 2.38 µM)
[2]
  MIC80: 1.25 µg/mL (≈ 2.38 µM)
[3]
  MIC80: 0.625 µg/mL (≈ 1.19 µM)
[4]
  MIC80: 0.125 µg/mL (≈ 0.238 µM)
[7]
  MIC80: 0.062 µg/mL (≈ 0.118 µM)
[9]
  MIC80: 0.031 µg/mL (≈ 0.059 µM)
[10]
  MIC80: 0.062 µg/mL (≈ 0.118 µM)
[11]
  MIC80: 0.031 µg/mL (≈ 0.059 µM)
[12]
  MIC80: 0.031 µg/mL (≈ 0.059 µM)
[13]
  MIC80: 0.312 µg/mL (≈ 0.594 µM)
[14]
  MIC80: 0.031 µg/mL (≈ 0.059 µM)
[18]
  MIC80: 0.062 µg/mL (≈ 0.118 µM)
[19]
  MIC80: 0.625 µg/mL (≈ 1.19 µM)
